{"source": "patent US20090281054A1", "about": "“COMPOSITIONS AND METHODS COMPRISING CAPURAMYCIN ANALOGUES” (priority 2008, published 2009)", "key": {"[1]": {"system": "M. kansaii (MKN; ATCC12478 & 35775)", "test": "MIC by microdilution method in 7H9 broth", "type": "cell-based, M. kansasii", "settings": "Mycobacterium kansasii, read-out: MIC"}, "MTB in J774 cells": {"system": "MTB in J774 cells", "test": "Intracellular activity of amino acid conjugates", "type": "cell-based, Mycobacterium tuberculosis", "settings": "day 0 RLU 775, Control day 7 31700", "method": "The amino acid conjugates were tested at concentrations of 4 mg/mL and 8 mg/mL compared with a control and isoniazid (INH).\nThe intracellular activity against MTB by capuramycin amino acid derivatives was tested. Cells J774 were infected with MTB and treated for 7 days with the amino acid derivative. The mean Relative Light Unites (RLU), an estimation of bacterial viability, was measured as described in Snewin et al., Infect. Immun., 1999, 67(9), 4586-4593)."}, "M. smegmatis": {"system": "M. smegmatis", "test": "Synergy by checkerboard titration (microdilution)", "type": "cell-based"}, "MSMG and MTB (H37Rv)": {"system": "MSMG and MTB (H37Rv)", "test": "Minimum bactericidal concentration (MBC), MBC/MIC ratio", "type": "cell-based, Mycobacterium tuberculosis; M. smegmatis"}, "MTB cultures": {"system": "MTB cultures", "test": "Induction of morphological changes and bacterial disintegration", "type": "cell-based, Mycobacterium tuberculosis", "description": "Induction of morphological changes and bacterial disintegration. […] Tubercle bacilli exposed to CM analogues were typically club-shaped, with deeply stained swollen ends (see Reddy et al. Antimicrob. Agents Chemother., 2008, 52(2), 719-721)."}, "MTB inside macrophages": {"system": "MTB inside macrophages", "test": "Intracellular activity of DMSO-solubilized drug in MTB infected macrophages", "type": "cell-based, Mycobacterium tuberculosis", "settings": "for Mean RLU at Day 7: Day 0 RLU 443, Control Day 7 4251"}, "MTB in macrophages": {"system": "MTB in macrophages", "type": "cell-based, Mycobacterium tuberculosis"}, "MTB [2]": {"system": "MTB", "test": "Activity in acidic pH (microdilution in 7H9 broth)", "type": "cell-based, Mycobacterium tuberculosis", "settings": "pH 7.0 to 5.0", "description": "Activity in acidic pH. The pH in macrophage phagolysomes is ˜5.5. To be effective against intracellular organisms, anti-TB drugs should concentrate inside macrophages and be active in an acidic environment. The activity of SQ641 against MTB was investigated by microdilution method in 7H9 broth at different hydrogen ion concentrations."}, "[3]": {"system": "Mycobacterium tuberculosis (MTB)", "test": "MIC by BACTEC radiometric method", "type": "cell-based", "method": "Determination of MIC. MIC of drugs for laboratory and clinical strains of Mycobacterium tuberculosis (MTB) was determined by BACTEC radiometric method as described by Heifets (1991), “Antituberculosis Drugs: Antimicrobial Activity in vitro, Drug Susceptibility in the Chemotherapy of Microbacterial Infections, Boca Raton, Fla., CRC Press and Luna-Herrera et al., Antimicrob. Agents and Chemother. 1995, 39(2), 440-444. […] The minimal inhibitory concentration (MIC) was defined as the lowest concentrations of drug that caused GI equal to or less than that of the 1/100 dilution growth control. Capuramycin analogues SQ641, SQ922 and SQ997 were tested at concentrations ranging from […]."}, "[4]": {"system": "Mycobacteria (all mycobacterial species tested)", "test": "In vitro MIC and MBC across mycobacterial species", "type": "cell-based", "settings": "NTM tested (Table 5)"}, "translocase I": {"target": "translocase I (Escherichia coli, UniProt P0A6W3)", "sequence (P0A6W3 whole entry)": "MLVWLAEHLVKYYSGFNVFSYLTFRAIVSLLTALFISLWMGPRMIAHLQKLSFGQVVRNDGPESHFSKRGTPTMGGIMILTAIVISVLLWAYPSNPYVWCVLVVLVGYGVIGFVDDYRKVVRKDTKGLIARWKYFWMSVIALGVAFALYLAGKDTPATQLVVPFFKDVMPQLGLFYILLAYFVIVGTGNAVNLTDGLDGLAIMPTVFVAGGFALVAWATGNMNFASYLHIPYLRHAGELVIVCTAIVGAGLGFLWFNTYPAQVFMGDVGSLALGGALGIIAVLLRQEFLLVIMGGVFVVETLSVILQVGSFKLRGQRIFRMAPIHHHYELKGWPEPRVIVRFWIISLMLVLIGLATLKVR", "test": "IC50 against translocase I", "type": "biochemical"}, "MAC": {"system": "MAC", "test": "Synergy by checkerboard titration (microdilution)", "type": "cell-based, M. avium complex", "settings": "for MIC: Mycobacterium avium, drug alone"}, "MTB [5]": {"system": "MTB", "test": "In vivo efficacy in mouse model of chronic TB disease (lung CFU)", "settings": "mice treated for 3 wk, starting 3 wk after infection, gav, ip, iv", "method": "In vivo activity against MTB. In vivo efficacy of CM analogues was investigated in a mouse model of chronic TB disease (FIG. 2). Three wk after infection, mice were treated for 3 wk with the drugs by gavage (gav), intraperitoneal injection (ip), intravenous injection (iv), or intranasal (in) routes. Efficacy was analyzed by determining Colony-Forming Units (CFU) in lungs. […] Each achieved a decrease of 1-log10 lung CFU compared to the late control [LC] CFU by at least one route, which varied for each drug."}}, "note": "Read-outs that look alike come from different tables or passages of the source.", "data": [{"compound": "CCCCCCCCCC(=O)O[C@@H]1[C@H](OC)[C@@H]([C@@H](O[C@H]2OC(C(=O)N[C@H]3CCC[C@@H](C)NC3=O)=C[C@H](O)[C@@H]2O)C(N)=O)O[C@H]1n1ccc(=O)[nH]c1=O", "note": "[SQ641]", "values": [{"measurement": "MIC", "setting": "[1]; ATCC 12478 / ATCC 35775, MKN ATCC35775", "value": 0.25, "unit": "mg/L"}, {"measurement": "MIC", "setting": "[1]; MKN ATCC12478", "value": 1, "unit": "mg/L"}, {"measurement": "Mean RLU on day 7", "setting": "MTB in J774 cells; 4 μg/ml", "value": 4707, "unit": "RLU"}, {"measurement": "Mean RLU on day 7", "setting": "MTB in J774 cells; 8 μg/ml", "value": 2755, "unit": "RLU"}, {"measurement": "ΣFIC", "setting": "M. smegmatis; M. smegmatis, SQ641 + EMB", "value": 0.375}, {"measurement": "ΣFIC", "setting": "M. smegmatis; M. smegmatis, SQ641 + INH", "value": 0.25}, {"measurement": "ΣFIC", "setting": "M. smegmatis; M. smegmatis, SQ641 + RIF", "value": 0.75}, {"measurement": "ΣFIC", "setting": "M. smegmatis; M. smegmatis, SQ641 + SM", "value": 1.0}, {"measurement": "MIC Combination", "setting": "M. smegmatis; M. smegmatis, combination SQ641 + EMB", "value": 0.25, "unit": "mg/L"}, {"measurement": "MIC Combination", "setting": "M. smegmatis; M. smegmatis, combination SQ641 + INH", "value": 0.25, "unit": "mg/L"}, {"measurement": "MIC Combination", "setting": "M. smegmatis; M. smegmatis, combination SQ641 + RIF", "value": 1.0, "unit": "mg/L"}, {"measurement": "MIC Combination", "setting": "M. smegmatis; M. smegmatis, combination SQ641 + SM", "value": 1.0, "unit": "mg/L"}, {"measurement": "Synergy with other anti-mycobacterial drugs", "setting": "M. smegmatis; MSMG", "value": "synergy in combination with INH and EMB in MSMG"}, {"measurement": "MIC", "setting": "M. smegmatis; Mycolicibacterium smegmatis, M. smegmatis, drug alone", "value": 2, "unit": "mg/L"}, {"measurement": "MBC/MIC ratio", "setting": "MSMG and MTB (H37Rv)", "value": 1}, {"measurement": "Bacterial disintegration / clearance of MTB cultures", "setting": "MTB cultures; MTB cultures", "value": "rapid bacterial disintegration"}, {"measurement": "Turbidity of MTB cultures", "setting": "MTB cultures; within 2 days of exposure", "value": "marked fall in the turbidity"}, {"measurement": "Mean RLU at Day 7", "setting": "MTB inside macrophages; 1 μg/ml", "value": 1208, "unit": "RLU"}, {"measurement": "Mean RLU at Day 7", "setting": "MTB inside macrophages; 2 μg/ml", "value": 1162, "unit": "RLU"}, {"measurement": "Mean RLU at Day 7", "setting": "MTB inside macrophages; 4 μg/ml", "value": 1116, "unit": "RLU"}, {"measurement": "Mean RLU at Day 7", "setting": "MTB inside macrophages; 8 μg/ml", "value": 441, "unit": "RLU"}, {"measurement": "Mean RLU at Day 7", "setting": "MTB inside macrophages; 16 μg/ml", "value": 253, "unit": "RLU"}, {"measurement": "Mean RLU at Day 7", "setting": "MTB inside macrophages; 32 μg/ml", "value": 190, "unit": "RLU"}, {"measurement": "Intracellular activity (FIG. 1)", "setting": "MTB inside macrophages; 1× and 2× MIC", "value": "showed intracellular activities"}, {"measurement": "RLU lower than the drug dissolved in DMSO", "setting": "MTB in macrophages", "value": "about 50%"}, {"measurement": "Mean RLU on day 7", "setting": "MTB in macrophages; SQ641 2 μg/ml, day 0 RLU 1397, Control day 7 9075", "value": 3535, "unit": "RLU"}, {"measurement": "Activity at different hydrogen ion concentrations", "setting": "MTB [2]", "value": "no loss"}, {"measurement": "MIC", "setting": "[3]; H37RV, MTB strain H37Rv", "value": 1, "unit": "mg/L"}, {"measurement": "MIC90", "setting": "[3]; MTB", "value": 4, "unit": "mg/L"}, {"measurement": "MIC", "setting": "[3]; MTB strain 16", "value": 4, "unit": "mg/L"}, {"measurement": "MIC", "setting": "[3]; MTB strain 113", "value": 1, "unit": "mg/L"}, {"measurement": "MIC", "setting": "[3]; MTB strain 158", "value": 4, "unit": "mg/L"}, {"measurement": "MIC", "setting": "[3]; MTB strain 606", "value": 4, "unit": "mg/L"}, {"measurement": "MIC", "setting": "[3]; MTB strain 847", "value": 4, "unit": "mg/L"}, {"measurement": "MIC", "setting": "[3]; MTB strain 1351", "value": 1, "unit": "mg/L"}, {"measurement": "MIC", "setting": "[3]; MTB strain 1407", "value": 2, "unit": "mg/L"}, {"measurement": "MIC", "setting": "[3]; MTB strain 1498", "value": 4, "unit": "mg/L"}, {"measurement": "MIC", "setting": "[3]; MTB strain 1665", "value": 2, "unit": "mg/L"}, {"measurement": "MIC", "setting": "[3]; MTB strain 1703", "value": 4, "unit": "mg/L"}, {"measurement": "MIC", "setting": "[3]; MTB strain 1760", "value": 8, "unit": "mg/L"}, {"measurement": "MIC", "setting": "[3]; MTB strain 1782", "value": 2, "unit": "mg/L"}, {"measurement": "MIC", "setting": "[3]; MTB strain 1901", "value": 4, "unit": "mg/L"}, {"measurement": "MIC", "setting": "[3]; MTB strain 1921", "value": 4, "unit": "mg/L"}, {"measurement": "MIC", "setting": "[3]; MTB strain 2224", "value": 4, "unit": "mg/L"}, {"measurement": "MIC", "setting": "[3]; MTB strain 2554", "value": 4, "unit": "mg/L"}, {"measurement": "MIC", "setting": "[3]; MTB strain 2693", "value": 8, "unit": "mg/L"}, {"measurement": "MIC", "setting": "[3]; MTB strain 8266", "value": 2, "unit": "mg/L"}, {"measurement": "MIC", "setting": "[3]; MTB strain 8642", "value": 4, "unit": "mg/L"}, {"measurement": "MIC90", "setting": "[4]", "value": 2, "unit": "mg/L"}, {"measurement": "IC50 against translocase I", "setting": "translocase I", "value": 0.55, "unit": "mg/L"}, {"measurement": "ΣFIC", "setting": "MAC; MAC A5, SQ641 + AMK", "value": 0.75}, {"measurement": "ΣFIC", "setting": "MAC; MAC A5, SQ641 + CLA, ≦0.5 synergistic, ≧4.0 antagonistic", "value": 0.75}, {"measurement": "MIC Combination", "setting": "MAC; MAC A5, combination SQ641 + AMK", "value": 0.125, "unit": "mg/L"}, {"measurement": "MIC Combination", "setting": "MAC; MAC A5, combination SQ641 + CLA", "value": 0.125, "unit": "mg/L"}, {"measurement": "MIC Combination", "setting": "MAC; MAC A5, combination SQ641 + EMB", "value": 0.062, "unit": "mg/L"}, {"measurement": "ΣFIC", "setting": "MAC; MAC JSH1, SQ641 + AMK", "value": 0.625}, {"measurement": "ΣFIC", "setting": "MAC; MAC JSH1, SQ641 + CLA", "value": 2.0}, {"measurement": "MIC Combination", "setting": "MAC; MAC JSH1, combination SQ641 + AMK", "value": 0.125, "unit": "mg/L"}, {"measurement": "MIC Combination", "setting": "MAC; MAC JSH1, combination SQ641 + CLA", "value": 1, "unit": "mg/L"}, {"measurement": "MIC Combination", "setting": "MAC; MAC JSH1, combination SQ641 + EMB", "value": 0.25, "unit": "mg/L"}, {"measurement": "ΣFIC", "setting": "MAC; MAC NIH C1-1, SQ641 + AMK", "value": 1.0}, {"measurement": "ΣFIC", "setting": "MAC; MAC NIH C1-1, SQ641 + CLA", "value": 2.0}, {"measurement": "MIC Combination", "setting": "MAC; MAC NIH C1-1, combination SQ641 + AMK", "value": 0.5, "unit": "mg/L"}, {"measurement": "MIC Combination", "setting": "MAC; MAC NIH C1-1, combination SQ641 + CLA", "value": 2.0, "unit": "mg/L"}, {"measurement": "MIC Combination", "setting": "MAC; MAC NIH C1-1, combination SQ641 + EMB", "value": 0.06, "unit": "mg/L"}, {"measurement": "MIC", "setting": "MAC; MAC A5", "value": 0.25, "unit": "mg/L"}, {"measurement": "MIC", "setting": "MAC; MAC JSH1", "value": 1, "unit": "mg/L"}, {"measurement": "MIC", "setting": "MAC; MAC NIH C1-1", "value": 2, "unit": "mg/L"}, {"measurement": "Routes by which replication of MTB in lungs was prevented (vs early control)", "setting": "MTB [5]", "value": "all but intranasal"}]}]}
